#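 Tested at 5 concentrations; 48 h exposure; 96-well plates; endpoints linearly interpolated, else capped at highest concentration. TGI: total growth inhibition.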
# Assays:
# Assay in all cases: NCI anticancer screen, dose series, 48 h
# [1] = system: 786-0 renal
# [2] = system: A498 renal
# [3] = system: A549 NSCLC
# [4] = system: ACHN renal
# [5] = system: CAKI-1 renal
# [6] = system: CCRF-CEM leukemia
# [7] = system: COLO 205 colon
# [8] = system: DU-145 prostate
# [9] = system: EKVX NSCLC
# [10] = system: HCC-2998 colon
# [11] = system: HCT-116 colon
# [12] = system: HCT-15 colon
# [13] = system: HL-60(TB) leukemia
# [14] = system: HOP-62 NSCLC
# [15] = system: HOP-92 NSCLC
# [16] = system: HS 578T breast
# [17] = system: HT29 colon
# [18] = system: IGROV1 ovarian
# [19] = system: K-562 leukemia
# [20] = system: KM12 colon
# [21] = system: LOX IMVI melanoma
# [22] = system: M14 melanoma
# [23] = system: MALME-3M melanoma
# [24] = system: MCF7 breast
# [25] = system: MDA-MB-231 breast
# [26] = system: MDA-MB-435
# [27] = system: MDA-N
# [28] = system: MOLT-4 leukemia
# [29] = system: NCI-H226 lung
# [30] = system: NCI-H23 lung
# [31] = system: NCI-H460 lung
# [32] = system: NCI-H522 lung
# [33] = system: NCI/ADR-RES ovarian
# [34] = system: OVCAR-3 ovarian
# [35] = system: OVCAR-4 ovarian
# [36] = system: OVCAR-5 ovarian
# [37] = system: OVCAR-8 ovarian
# [38] = system: PC-3 prostate
# [39] = system: RPMI-8226 leukemia
# [40] = system: RXF 393 renal
# [41] = system: SF-268 CNS
# [42] = system: SF-295 CNS
# [43] = system: SF-539 CNS
# [44] = system: SK-MEL-2 melanoma
# [45] = system: SK-MEL-28 melanoma
# [46] = system: SK-MEL-5 melanoma
# [47] = system: SK-OV-3 ovarian
# [48] = system: SN12C renal
# [49] = system: SNB-19 CNS
# [50] = system: SNB-75 CNS
# [51] = system: SW-620 colon
# [52] = system: T-47D breast
# [53] = system: TK-10 renal
# [54] = system: UACC-257 melanoma
# [55] = system: UACC-62 melanoma
# [56] = system: UO-31 renal
smiles,measurement,setting,value
[N-]=[N+]=Nc1c(Cc2ccccc2)c(Cl)nc2ccccc12,TGI,[1],> 100 µM
same,TGI,[2],65.3 µM
same,TGI,[3],> 100 µM
same,TGI,[4],> 100 µM
same,TGI,[5],92.3 µM
same,TGI,[6],> 100 µM
same,TGI,[7],35.2 µM
same,TGI,[8],> 100 µM
same,TGI,[9],> 100 µM
same,TGI,[10],> 100 µM
same,TGI,[11],53 µM
same,TGI,[12],> 100 µM
same,TGI,[13],56.6 µM
same,TGI,[14],51 µM
same,TGI,[15],64.4 µM
same,TGI,[16],54.4 µM
same,TGI,[17],> 100 µM
same,TGI,[18],> 100 µM
same,TGI,[19],83.7 µM
same,TGI,[20],61.2 µM
same,TGI,[21],38.5 µM
same,TGI,[22],49.4 µM
same,TGI,[23],41.8 µM
same,TGI,[24],58.8 µM
same,TGI,[25],56.7 µM
same,TGI,[26],37.2 µM
same,TGI,[27],> 100 µM
same,TGI,[28],> 100 µM
same,TGI,[29],59.7 µM
same,TGI,[30],> 100 µM
same,TGI,[31],> 100 µM
same,TGI,[32],> 100 µM
same,TGI,[33],> 100 µM
same,TGI,[34],38.4 µM
same,TGI,[35],> 100 µM
same,TGI,[36],> 100 µM
same,TGI,[37],46.5 µM
same,TGI,[38],> 100 µM
same,TGI,[39],87.3 µM
same,TGI,[40],39.6 µM
same,TGI,[41],> 100 µM
same,TGI,[42],62.1 µM
same,TGI,[43],41.3 µM
same,TGI,[44],33.4 µM
same,TGI,[45],> 100 µM
same,TGI,[46],30 µM
same,TGI,[47],> 100 µM
same,TGI,[48],73.8 µM
same,TGI,[49],83.1 µM
same,TGI,[50],93.3 µM
same,TGI,[51],> 100 µM
same,TGI,[52],> 100 µM
same,TGI,[53],53 µM
same,TGI,[54],> 100 µM
same,TGI,[55],68.8 µM
same,TGI,[56],> 100 µM

# Source: PubChem BioAssay (NCI)
